We go through 1 compound from US20250290057A1, “LYTIC AGENT FOR ENTEROCOCCUS FAECALIS” (priority 2022, published 2025).

SMILES strings stand for the structures. Converted amounts (≈) assume the structure as drawn. Read-outs that look alike come from different tables or passages of the source.

One assay relates to E. faecalis isolates. Nature of the assay: Minimal inhibitory concentration of antibacterial agents, "Eiken" DP42 dry plate. Format: cell-based, Enterococcus faecalis. The settings on record: for MIC: Enterococcus faecalis. The procedure:
(§1) The sensitivity to an antibacterial agent for each of the above-described 30 Enterococcus bacterial strains was invenstigated. Specifically, the bacterial strains prepared in 1 McFarland standard with physiological saline were diluted 500-fold with a BHI culture medium, and then aerobically cultured in solid-phase wells of an “Eiken” DP42 dry plate (Eiken Chemical Co., Ltd., Tokyo, Japan) for 24 hours.
(§2) The minimal inhibitory concentration of any one of the antibacterial agents, i.e., daptomycin (DAP), vancomycin (VCM), teicoplanin (TEIC), and linezolid (LZD), was determined in accordance with the instruction of the product. […] The results obtained by testing resistance to the antibacterial agents of the E. faecalis strains (11 strains) are shown in Table 1 below.

Another assay relates to E. faecium isolates. The description is as above. The class given is cell-based, Enterococcus faecium. The settings on record: all E. faecium (19 strains). The procedure: as §1, §2
Assay [1] has as its system E. faecalis strains JCM5803, JCM8902. The assay is described as follows: Vancomycin resistance evaluation (method of Example 2 (2)). The class given is cell-based. Further details: key: resistant: +; nonresistant: −. The procedure: as §1, §2
(§3) The hemolytic activity of each of the bacterial strains was measured with a hemolysis assay using a Nissui Plate Horse Blood Agar medium. The cytolysin-related gene was detected with PCR. The vancomycin resistance was evaluated using the method described in (2) in Example 2. The vanA gene and the vanB gene that are vancomycin-resistant genes were detected with PCR. Furthermore, each bacterial strain was aerobically cultured in a BHI culture medium, and centrifuged at 300×g for 5 minutes for collection. The cell pellets were washed, and resuspended in a HiTrap buffer. The phage-derived endolysin was added at a final concentration of 50 μg/mL to the cell resuspension liquid. The resulting suspension was incubated at 37° C., and the lytic activity was measured, using the presence or absence of a bacterial lump as an index.

Assay [2] relates to E. faecium strain JCM5804. The description is as above. The class given is cell-based. Also on record: key: resistant: +; nonresistant: −. The procedure: as §1, §2, §3

As to `CN[C@H](CC(C)C)C(=O)N[C@H]1C(=O)N[C@@H](CC(N)=O)C(=O)N[C@H]2C(=O)N[C@H]3C(=O)N[C@H](C(=O)N[C@H](C(=O)O)c4cc(O)cc(O)c4-c4cc3ccc4O)[C@H](O)c3ccc(c(Cl)c3)Oc3cc2cc(c3O[C@@H]2O[C@H](CO)[C@@H](O)[C@H](O)[C@H]2O[C@H]2C[C@](C)(N)[C@H](O)[C@H](C)O2)Oc2ccc(cc2Cl)[C@H]1O` [vancomycin], the MIC in the assay on E. faecalis isolates (read-out: Minimal inhibitory concentration, E. faecalis strain OCU009_35_4) is 2 µg/mL (≈ 1.38 µM); with E. faecalis isolates (read-out: Minimal inhibitory concentration, E. faecalis strain OCU009_35_10) it was 4 µg/mL (≈ 2.76 µM); in the assay with E. faecalis isolates (read-out: Minimal inhibitory concentration, E. faecalis strain OCU015_56_6), 2 µg/mL (≈ 1.38 µM); in the assay on E. faecalis isolates (read-out: Minimal inhibitory concentration, E. faecalis strain OCU015_56_7), 2 µg/mL (≈ 1.38 µM); in the assay on E. faecalis isolates (read-out: Minimal inhibitory concentration, E. faecalis strain OCU031_7_1) it was 4 µg/mL (≈ 2.76 µM); with E. faecalis isolates (read-out: Minimal inhibitory concentration, E. faecalis strain OCU031_7_9) it was 2 µg/mL (≈ 1.38 µM). In addition, the MIC was 4 µg/mL (≈ 2.76 µM) in the assay with E. faecalis isolates (read-out: Minimal inhibitory concentration, E. faecalis strain OCU031_14_5); 2 µg/mL (≈ 1.38 µM) in the assay on E. faecalis isolates (read-out: Minimal inhibitory concentration, E. faecalis strain OCU031_14_8); 2 µg/mL (≈ 1.38 µM) with E. faecalis isolates (read-out: Minimal inhibitory concentration, E. faecalis strain OCU031_pre_6); 2 µg/mL (≈ 1.38 µM) in the assay with E. faecalis isolates (read-out: Minimal inhibitory concentration, E. faecalis strain OCU031_pre_7); 2 µg/mL (≈ 1.38 µM) in the assay with E. faecalis isolates (read-out: Minimal inhibitory concentration, E. faecalis strain OCU031_pre_10). For the same compound, the “Sensitivity of strains to antibacterial agent” value with E. faecalis isolates (all E. faecalis strains (11 strains)) and in the assay with E. faecium isolates was “exhibited sensitivity” throughout. For the same compound, the Vancomycin-resistance result in assay [1] (strain JCM5803) is “−”; in assay [1] (strain JCM8902), “+”; in assay [2], “−”.
